According to PubChem BioAssay AID248 (DTP/NCI, 2004):
“And” between values parts separate entries of the source, which are not always exact repeats. Identical values can stand only once. Inconclusive results and toxic doses are left out. Rule as the data show it: active = T/C of 150% or more; inactive = T/C below 125%.

System: L1210 leukemia ip in BDF1 mice, survival T/C
Test: NCI In Vivo Anticancer Drug Screen. Data for tumor model L1210 Leukemia (intraperitoneal) in B6D2F1 (BDF1) mice
Details: endpoint: mean survival time, higher = longer survival
Outline: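 Mice bearing the transplanted tumor received compound or vehicle. Survival of the treated group was divided by that of the vehicle-treated control group to give the ratio.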

[1] = dose: 100.0 mg/kg/injection, schedule: Q01DX009 (ip), vehicle: Klucel (hydroxypropylcellulose) (HPC)
[2] = dose: 200.0 mg/kg/injection, schedule: Q01DX009 (ip), vehicle: Klucel (hydroxypropylcellulose) (HPC)
[3] = dose: 100.0 mg/kg/injection, schedule: Q01DX001 (ip), vehicle: saline
[4] = dose: 200.0 mg/kg/injection, schedule: Q01DX001 (ip), vehicle: saline
[5] = dose: 400.0 mg/kg/injection, schedule: Q01DX001 (ip), vehicle: saline
[6] = dose: 100.0 mg/kg/injection, schedule: Q04DX003 (ip), vehicle: saline with Tween-80
[7] = dose: 200.0 mg/kg/injection, schedule: Q04DX003 (ip), vehicle: saline with Tween-80
[8] = dose: 400.0 mg/kg/injection, schedule: Q04DX003 (ip), vehicle: saline with Tween-80
[9] = dose: 100.0 mg/kg/injection, schedule: Q01DX009 (ip), vehicle: saline with Tween-80
[10] = dose: 200.0 mg/kg/injection, schedule: Q01DX009 (ip), vehicle: saline with Tween-80
[11] = dose: 400.0 mg/kg/injection, schedule: Q01DX009 (ip), vehicle: saline with Tween-80
[12] = dose: 5.0 mg/kg/injection, schedule: Q01DX001 (ip), vehicle: saline
[13] = dose: 10.0 mg/kg/injection, schedule: Q01DX001 (ip), vehicle: saline
[14] = dose: 100.0 mg/kg/injection, schedule: Q01DX009 (ip), vehicle: saline
[15] = dose: 200.0 mg/kg/injection, schedule: Q01DX009 (ip), vehicle: saline
[16] = dose: 100.0 mg/kg/injection, schedule: Q04DX002 (ip), vehicle: saline with Tween-80
[17] = dose: 200.0 mg/kg/injection, schedule: Q04DX002 (ip), vehicle: saline with Tween-80
[18] = dose: 400.0 mg/kg/injection, schedule: Q04DX002 (ip), vehicle: saline with Tween-80
[19] = dose: 100.0 mg/kg/injection, schedule: Q04DX003 (ip), vehicle: Klucel (hydroxypropylcellulose) (HPC)
[20] = dose: 200.0 mg/kg/injection, schedule: Q04DX003 (ip), vehicle: Klucel (hydroxypropylcellulose) (HPC)
[21] = dose: 400.0 mg/kg/injection, schedule: Q04DX003 (ip), vehicle: Klucel (hydroxypropylcellulose) (HPC)

Measured: T/C

Cc1cc(C)c(CC(C)(CO)CO)cc1CC(C)(CO)CO
inactive: [1] 93 % of control | [2] 87 % of control | dose: 300.0 mg/kg/injection, schedule: Q01DX009 (ip), vehicle: Klucel (hydroxypropylcellulose) (HPC) 106 % of control

COC(=O)c1ccc(N(C)CCC(=O)CBr)cc1
inactive: [3] 95 % of control

Cc1ccc(C(C)C)c(OC(=O)Nc2ccc(S(=O)(=O)N(C)C)cc2)c1
inactive: [3] 103 % of control | [4] 100 % of control | [5] 101 % of control

CC(C)OC(=O)Nc1cccc([N+](=O)[O-])c1
inactive: dose: 100.0 mg/kg/injection, schedule: Q04DX002 (ip), vehicle: Klucel (hydroxypropylcellulose) (HPC) 105 % of control | dose: 200.0 mg/kg/injection, schedule: Q04DX002 (ip), vehicle: Klucel (hydroxypropylcellulose) (HPC) 91 % of control | dose: 400.0 mg/kg/injection, schedule: Q04DX002 (ip), vehicle: Klucel (hydroxypropylcellulose) (HPC) 97 % of control

CCOC(=O)NC(C)(C)CN(C(=O)OCC)c1ccccc1
inactive: [6] 111 % of control | [7] 108 % of control | [8] 106 % of control

CCCCCCCCCCCCc1c(C(OC)OC)[nH]c(=S)[nH]c1=O
inactive: [9] 94 % of control | [6] 98 % of control | [10] 100 % of control | [7] 96 % of control | [11] 103 % of control | [8] 93 % of control

FCCNCCF
inactive: [12] 101 % of control | [13] 112 % of control

C[N+]1(C2CCC3CCC2C3O)CCOCC1 (configuration not stated)
inactive: dose: 50.0 mg/kg/injection, schedule: Q01DX009 (ip), vehicle: saline 106 % of control and 124 % of control | [14] 100 % of control | dose: 100.0 mg/kg/injection, schedule: Q04DX003 (ip), vehicle: saline 103 % of control and 101 % of control | [15] 98 % of control | dose: 200.0 mg/kg/injection, schedule: Q04DX003 (ip), vehicle: saline 97 % of control and 105 % of control

Clc1ccc2c(Cl)ccnc2c1
inactive: dose: 100.0 mg/kg/injection, schedule: Q04DX002 (ip), vehicle: gum acacia 91 % of control | dose: 200.0 mg/kg/injection, schedule: Q04DX002 (ip), vehicle: gum acacia 95 % of control

CC1OC(=O)NC1C(=O)O (configuration not stated)
inactive: [3] 120 % of control | [14] 91 % of control | [6] 106 % of control | [4] 98 % of control | [15] 101 % of control | [7] 103 % of control | [5] 101 % of control | dose: 400.0 mg/kg/injection, schedule: Q01DX009 (ip), vehicle: saline 89 % of control | [8] 95 % of control

c1ccc2c(c1)NC(SSC1Nc3ccccc3S1)S2 (configuration not stated)
inactive: [3] 94 % of control | [4] 88 % of control | [5] 94 % of control

COc1ccc(OC)c(N=C2C(=O)Nc3ccc(Br)cc32)c1
inactive: dose: 100.0 mg/kg/injection, schedule: Q01DX001 (ip), vehicle: saline with Tween-80 92 % of control | [9] 100 % of control | [16] 108 % of control and 113 % of control | [6] 101 % of control | dose: 200.0 mg/kg/injection, schedule: Q01DX001 (ip), vehicle: saline with Tween-80 88 % of control | [10] 94 % of control and 100 % of control | [17] 95 % of control and 97 % of control | [7] 93 % of control | dose: 400.0 mg/kg/injection, schedule: Q01DX001 (ip), vehicle: saline with Tween-80 90 % of control | [11] 101 % of control and 92 % of control | [18] 88 % of control and 89 % of control | [8] 88 % of control

[CH3][Sb]([CH3])([CH3])([O]C(=O)C(Cl)Cl)[O]C(=O)C(Cl)Cl
inactive: [6] 105 % of control | [7] 108 % of control | [8] 103 % of control

c1ccc2c(c1)CCN(C1=NCCO1)C2
inactive: dose: 9.5 mg/kg/injection, schedule: Q01DX001 (ip), vehicle: saline 112 % of control | dose: 10.0 mg/kg/injection, schedule: Q04DX003 (ip), vehicle: saline 97 % of control | dose: 19.0 mg/kg/injection, schedule: Q01DX001 (ip), vehicle: saline 100 % of control | dose: 20.0 mg/kg/injection, schedule: Q04DX003 (ip), vehicle: saline 94 % of control | dose: 38.0 mg/kg/injection, schedule: Q01DX001 (ip), vehicle: saline 101 % of control | dose: 40.0 mg/kg/injection, schedule: Q04DX003 (ip), vehicle: saline 90 % of control

CCCC1C(CC)C=NN1Cc1ccccc1 (configuration not stated)
inactive: dose: 50.0 mg/kg/injection, schedule: Q01DX001 (ip), vehicle: carboxymethylcellulose (CMC) 88 % of control | dose: 100.0 mg/kg/injection, schedule: Q01DX001 (ip), vehicle: carboxymethylcellulose (CMC) 100 % of control | dose: 200.0 mg/kg/injection, schedule: Q01DX001 (ip), vehicle: carboxymethylcellulose (CMC) 94 % of control | dose: 400.0 mg/kg/injection, schedule: Q01DX001 (ip), vehicle: carboxymethylcellulose (CMC) 92 % of control

CCN(/C=C1\CCOC1=O)CC
inactive: dose: 100.0 mg/kg/injection, schedule: Q04DX002 (ip), vehicle: saline 101 % of control | dose: 200.0 mg/kg/injection, schedule: Q04DX002 (ip), vehicle: saline 97 % of control

N#Cc1cnn(C(N)=O)c1N
inactive: [19] 100 % of control | [20] 95 % of control | [21] 100 % of control

CCC(=O)c1ccc(OCC(CN2CCN(c3ccccc3OC)CC2)OC(C)=O)cc1 (configuration not stated)
inactive: [6] 97 % of control | [7] 105 % of control | [8] 100 % of control

O=C(NS(=O)(=O)c1ccc(Cl)cc1)OCCCl
inactive: [19] 96 % of control | [20] 95 % of control | [21] 98 % of control

O=C(O)c1cc(S(=O)(=O)F)ccc1O
inactive: [16] 101 % of control | [17] 101 % of control | [18] 104 % of control

CC[N+](C)(CC)CCNC(c1ccccc1)C(Cl)(Cl)Cl (configuration not stated)
inactive: [12] 92 % of control | [13] 95 % of control | dose: 20.0 mg/kg/injection, schedule: Q01DX001 (ip), vehicle: saline 103 % of control | dose: 40.0 mg/kg/injection, schedule: Q01DX001 (ip), vehicle: saline 95 % of control | dose: 80.0 mg/kg/injection, schedule: Q01DX001 (ip), vehicle: saline 106 % of control | [3] 102 % of control

C=CCNC(=S)Nc1cccc(OC(=O)Nc2ccc(Cl)c(Cl)c2)c1
inactive: [1] 87 % of control | [2] 92 % of control

N#CCC(=O)Cc1ccccc1[N+](=O)[O-]
inactive: [6] 95 % of control | [7] 100 % of control | [8] 94 % of control

CC(C)(C)OC1C=CCCC1 (configuration not stated)
inactive: [6] 96 % of control | [7] 96 % of control | [8] 96 % of control

O=C(O)C1OC1C(=O)O (configuration not stated)
inactive: dose: 75.0 mg/kg/injection, schedule: Q01DX009 (ip), vehicle: saline with Tween-80 101 % of control | dose: 75.0 mg/kg/injection, schedule: Q04DX003 (ip), vehicle: saline 100 % of control | dose: 150.0 mg/kg/injection, schedule: Q01DX009 (ip), vehicle: saline with Tween-80 103 % of control | dose: 150.0 mg/kg/injection, schedule: Q04DX003 (ip), vehicle: saline 98 % of control | dose: 300.0 mg/kg/injection, schedule: Q01DX009 (ip), vehicle: saline with Tween-80 95 % of control | dose: 300.0 mg/kg/injection, schedule: Q04DX003 (ip), vehicle: saline 100 % of control

Nc1nc(N)c(-c2ccc(Cl)cc2)c(CO)n1
inactive: [3] 93 % of control | [4] 104 % of control | [5] 95 % of control
